This note sets out measurements from US9821035B2, “Preparation for preventing or treating type I diabetes” (REGIMMUNE CORPORATION, priority 2012, dated 2017).

Molecules are shown by their SMILES.

Holding throughout (assay type): cell-based
The subject of one experiment is IL-10. Briefly: Cytokine production in culture supernatant of spleen cells from drug-administered NOD mice: IL-10. As to conditions: spleen cells of dosed NOD mice, cultured four days. As for the experimental part:
(§1) 1-5. Analysis of Insulin-B-Peptide-Specific Cell Proliferation of Treg Cells and Measurement of Cytokine Production To NOD mice (NOD/ShiJcl, CLEA Japan Inc., Tokyo, Japan), which are animals representing a spontaneous model for type I diabetes, was intraperitoneally administered 100 μl of the sample for administration, twice a week between the age of 5 to 10 weeks, which was a period prior to the onset of type I diabetes. The spleen was removed from 13-week-old mice and then spleen cells were prepared and subjected to cell culture. Groups receiving test drugs were the following five groups: 1) a group receiving no drug (i.e., a group receiving physiological saline), 2) a group receiving the insulin-B-peptide-incorporated α-GalCer-liposome, 3) a group receiving the insulin-B-peptide-incorporated liposome, 4) a group receiving the α-GalCer-liposome, and 5) a group receiving the α-GalCer solution, with N=2 to 3 animals per group. After preparation of spleen cells from the animals of each of the groups, spleen cells were loaded with CFSE (carboxyfluorescein diacetate succinimidyl ester), a dye used in cell proliferation assays, and subjected to reaction, followed by washing the cells to remove the dye, in regular procedures. […] The concentrations of IL-2 and IL-10 in the culture supernatant were also measured.

The test system of experiment [1] is CD4(+) Foxp3(+) cells (Treg cells). The experiment is described as follows: Insulin-B-peptide-specific proliferation of Treg cells, CFSE/FACS on spleen cells from drug-administered NOD mice (Example 3). The conditions noted are these: FIG. 3B. As for the experimental part: as §1
The subject of a further experiment is IL-2. Briefly: Cytokine production in culture supernatant of spleen cells from drug-administered NOD mice: IL-2. The conditions noted are these: spleen cells of dosed NOD mice, cultured four days. On the procedure: as §1

For the compound `CCCCCCCCCCCCCCCCCCCCCCCCCC(=O)N[C@@H](CO[C@H]1O[C@H](CO)[C@H](O)[C@H](O)[C@H]1O)[C@H](O)[C@H](O)CCCCCCCCCCCCCC` [α-GalCer solution, (2S,3S,4R)-1-O-(α-D-galactopyranosyl)-2-hexacosanoylamino-1,3,4-octadecanetriol], in the experiment with IL-10, the “Concentration of IL-10 in culture supernatant” value was 1.3 pg/mL. In experiment [1], the “ratio of the percentage of proliferated cells when no antigen was added to the percentage when the insulin B peptide was added” value was found to be 1.04. Further, in the experiment with IL-2, the “Concentration of IL-2 in culture supernatant” value is 0.9 pg/mL.
